Experimental data from patent publication US12421222B2 (AUGUSTINE THERAPEUTICS, priority 2021, dated 2025).

Test system: acetylated tubulin (Lys40) in HeLa cells
Experiment: Acetylated α-tubulin measurement in vitro (immunocytochemistry)
Assay type: cell-based
Settings: Homo sapiens, 6 hours incubation, acetylated tubulin (Lys40) by immunocytochemistry, read-out: IC50 (Tubulin deacetylation)
Experimental: HeLa cells were cultured in UltraCulture serum-free medium (Lonza) supplemented with 2 mM glutamine (Lonza). Assays were performed at 96-well or 384-well format, differences in assay protocols are detailed in Table 6. Cells per well were plated and incubated overnight at 37° C. overnight in a humidified atmosphere containing 5% CO2. Cell density and seeding volumes are detailed in Table 6. Compounds (dissolved in 100% DMSO) or DMSO (vehicle) were added manually by diluting them in culture medium at 10× final assay concentration and adding 10 μL to cells (96-well protocol). Alternatively, 50 nL compound was added directly to the cell culture using the Echo650 (Labcyte) (384-well protocol). In this assay, the final assay concentration of DMSO is 0.1%-0.4%. Trichostatin A (TSA) was used as a positive control. Cells were incubated with compounds at 37° C. in a humidified atmosphere containing 5% CO2 for 6 hours. Levels of acetylated tubulin (Lys40) were assessed by immunocytochemistry using target-specific antibodies. Cells were fixed with 4% PFA at RT as detailed in Table 6. After 2-3 wash steps with PBS, cells were permeabilized with 0.5% Triton in PBS at RT for 10 minutes followed by 1-2 washes with PBS. To avoid non-specific antibody staining, cells were blocked with 3% BSA in PBS at room temperature for 1 hour. […] Cells were washed 2-3 times with PBS and labelled for 1 h at RT with goat anti-mouse conjugated with Alexa 647 (Thermofisher) and goat anti-rabbit conjugated with Alexa 555 (Thermofisher) secondary antibodies, diluted in 1% BSA to a final concentration of 1:1000. Simultaneously, nuclei were stained with 1:10000-1:15000 Hoechst (Thermofisher). Incubation time and temperature of the primary antibodies are detailed in Table 6. Cells were washed 2-3 times with PBS and they were imaged with the Operetta CLS or Opera Phenix (PerkinElmer). Imaging is further detailed in Table 6. For imaging analysis, the Harmony analysis software (PerkinElmer) was used. Cytoplasmic (defined by total α-tubulin staining) intensities per well were used for α-tubulin (acetylated and total) quantification. Intensities were measured per cell and then averaged per well. Mean intensity levels of acetylated tubulin were normalized to the mean intensity levels of total tubulin. The changes in acetylated tubulin were normalized for each plate using GraphPad Prism software: tubulin acetylation in vehicle (DMSO)-treated cells were set to 0% while tubulin acetylation in TSA-treated cells were set to 100%. EC50 values were calculated using the log(inhibitor) vs. response—Variable slope (four parameters) nonlinear regression in GraphPad Prism software.

Row | Compound | IC50
1 | COc1ccc2nc(C)nc(SCC(=O)c3ccc(CCN4CCC(O)C4=O)s3)c2c1 (stereo not shown) [Example 115, 3-hydroxy-1-(2-(5-(2-((6-methoxy-2-methylquinazolin-4-yl)thio)acetyl)thiophen-2-yl)ethyl)pyrrolidin-2-one] | 500 to 1000 nM
2 | CNc1cc(C(F)(F)F)cc2c(SCC(=O)c3ccc(CNC(=O)CO)s3)nc(C)nc12 [Example 151, 2-hydroxy-N-((5-(2-((2-methyl-8-(methylamino)-6-(trifluoromethyl)quinazolin-4-yl)thio)acetyl)thiophen-2-yl)methyl)acetamide] | 1000 to 3330 nM
3 | Cc1nc(SCC(=O)c2ccc(CNC(=O)C(C)(C)C)s2)c2cnn(C)c2n1 [Example 5, N-((5-(2-((1,6-dimethyl-1H-pyrazolo[3,4-d]pyrimidin-4-yl)thio)acetyl)thiophen-2-yl)methyl)pivalamide] | > 3330 nM
4 | CC(C)(C)C(=O)NCc1ccc(C(=O)CSc2nc(C(F)F)nc3ccccc23)s1 [Example 19, N-((5-(2-((2-(difluoromethyl)quinazolin-4-yl)thio)acetyl)thiophen-2-yl)methyl)pivalamide] | 1000 to 3330 nM
5 | COc1ccc2nc(C)nc(SCC(=O)c3ccc(CNC(=O)C(C)(C)C)s3)c2c1 [Example 17, N-((5-(2-((6-methoxy-2-methylquinazolin-4-yl)thio)acetyl)thiophen-2-yl)methyl)pivalamide] | 500 to 1000 nM
6 | CS(=O)(=O)NCCc1ccc(C(=O)CSc2nc(C(F)(F)F)nc3ccccc23)s1 [Example 98, N-(2-(5-(2-((2-(trifluoromethyl)quinazolin-4-yl)thio)acetyl)thiophen-2-yl)ethyl)methanesulfonamide] | 1000 to 3330 nM
7 | COc1ccc2nc(C)nc(SCC(=O)c3ccc(CN4CCC(O)C4=O)s3)c2c1 (stereo not shown) [Example 141, 3-hydroxy-1-((5-(2-((6-methoxy-2-methylquinazolin-4-yl)thio)acetyl)thiophen-2-yl)methyl)pyrrolidin-2-one] | 100 to 500 nM
8 | CN(Cc1ccc(C(=O)CSc2ncnc3c2cnn3C)s1)S(=O)(=O)C1CC1 [Example 91, N-methyl-N-((5-(2-((1-methyl-1H-pyrazolo[3,4-d]pyrimidin-4-yl)thio)acetyl)thiophen-2-yl)methyl)cyclopropanesulfonamide] | > 3330 nM
9 | COc1ccc2nc(C(F)(F)F)nc(SCC(=O)c3ccc(CNC(=O)CO)s3)c2c1 [Example 80, 2-hydroxy-N-((5-(2-((6-methoxy-2-(trifluoromethyl)quinazolin-4-yl)thio)acetyl)thiophen-2-yl)methyl)acetamide] | 100 to 500 nM
10 | CC(NC(=O)CO)c1ccc(C(=O)CSc2nc3cnc(C(F)(F)F)cc3o2)s1 (stereo in doubt) [Example 129, (S)-2-hydroxy-N-(1-(5-(2-((6-(trifluoromethyl)oxazolo[4,5-c]pyridin-2-yl)thio)acetyl)thiophen-2-yl)ethyl)acetamide] | 100 to 500 nM
11 | O=C(CSc1nc(C(F)(F)F)nc2nn(C3CC3)cc12)c1ccc(CNC(=O)C(F)(F)C(F)(F)F)s1 [Example 44, N-((5-(2-((2-cyclopropyl-6-(trifluoromethyl)-2H-pyrazolo[3,4-d]pyrimidin-4-yl)thio)acetyl)thiophen-2-yl)methyl)-2,2,3,3,3-pentafluoropropanamide] | 100 to 500 nM
12 | COc1ccc2nc(C(F)(F)F)nc(SCC(=O)c3ccc(CNC(=O)C(C)(C)O)s3)c2c1 [Example 134, 2-hydroxy-N-((5-(2-((6-methoxy-2-(trifluoromethyl)quinazolin-4-yl)thio)acetyl)thiophen-2-yl)methyl)-2-methylpropanamide] | 100 to 500 nM
13 | Cn1cc2c(SCC(=O)c3ccc(CNC(=O)C(O)C(F)(F)F)s3)nc(C(F)(F)F)nc2n1 (stereo not shown) [Example 46, 3,3,3-trifluoro-2-hydroxy-N-((5-(2-((2-methyl-6-(trifluoromethyl)-2H-pyrazolo[3,4-d]pyrimidin-4-yl)thio)acetyl)thiophen-2-yl)methyl)propanamide] | 100 to 500 nM

Now from value to molecule:

Row | IC50 | Compound
14 | 100 to 500 nM | Cc1nc(SCC(=O)c2ccc(CNC(=O)CO)s2)c2cc(C(F)(F)F)cc(N(C)C)c2n1 [Example 150, N-((5-(2-((8-(dimethylamino)-2-methyl-6-(trifluoromethyl)quinazolin-4-yl)thio)acetyl)thiophen-2-yl)methyl)-2-hydroxyacetamide]
15 | 100 to 500 nM | Cn1cc2c(SCC(=O)c3ccc(CNC(=O)C4(O)CC4)s3)nc(C(F)(F)F)nc2n1 [Example 49, 1-hydroxy-N-((5-(2-((2-methyl-6-(trifluoromethyl)-2H-pyrazolo[3,4-d]pyrimidin-4-yl)thio)acetyl)thiophen-2-yl)methyl)cyclopropane-1-carboxamide]
16 | ≤ 100 nM | Cc1nc(SCC(=O)c2ccc(CNC(=O)CO)s2)c2ncccc2n1 [Example 153, 2-hydroxy-N-((5-(2-((2-methylpyrido[3,2-d]pyrimidin-4-yl)thio)acetyl)thiophen-2-yl)methyl)acetamide]
17 | ≤ 100 nM | Cc1nc(SCC(=O)c2ccc(CNC(=O)CO)s2)c2cc(Cl)cc(F)c2n1 [Example 142, N-((5-(2-((6-chloro-8-fluoro-2-methylquinazolin-4-yl)thio)acetyl)thiophen-2-yl)methyl)-2-hydroxyacetamide]
18 | 100 to 500 nM | COc1ccc2c(SCC(=O)c3ccc(CNC(=O)CO)s3)nc(C)nc2c1 [Example 70, 2-hydroxy-N-((5-(2-((7-methoxy-2-methylquinazolin-4-yl)thio)acetyl)thiophen-2-yl)methyl)acetamide]
19 | ≤ 100 nM | COc1ccc2nc(C)nc(SCC(=O)c3ccc(CNC(=O)[C@H](C)O)s3)c2c1 [Example 185, (S)-2-hydroxy-N-((5-(2-((6-methoxy-2-methylquinazolin-4-yl)thio)acetyl)thiophen-2-yl)methyl)propanamide]
20 | ≤ 100 nM | COc1cc2c(SCC(=O)c3ccc(CN(C)C(=O)CO)s3)nc(C(F)(F)F)nc2cn1 [Example 159, 2-hydroxy-N-((5-(2-((6-methoxy-2-(trifluoromethyl)pyrido[3,4-d]pyrimidin-4-yl)thio)acetyl)thiophen-2-yl)methyl)-N-methylacetamide]
21 | ≤ 100 nM | CCOc1ccc2nc(C)nc(SCC(=O)c3ccc(CNC(=O)CO)s3)c2c1 [Example 144, N-((5-(2-((6-ethoxy-2-methylquinazolin-4-yl)thio)acetyl)thiophen-2-yl)methyl)-2-hydroxyacetamide]
22 | ≤ 100 nM | COc1cc2c(SCC(=O)c3ccc(CNC(=O)CO)s3)nc(C(F)(F)F)nc2cn1 [Example 154, 2-hydroxy-N-((5-(2-((6-methoxy-2-(trifluoromethyl)pyrido[3,4-d]pyrimidin-4-yl)thio)acetyl)thiophen-2-yl)methyl)acetamide]
23 | ≤ 100 nM | CCOc1cnc2nc(C)nc(SCC(=O)c3ccc(CNC(=O)CO)s3)c2c1 [Example 160, N-((5-(2-((6-ethoxy-2-methylpyrido[2,3-d]pyrimidin-4-yl)thio)acetyl)thiophen-2-yl)methyl)-2-hydroxyacetamide]
24 | 100 to 500 nM | CCn1ncc2c(SCC(=O)c3ccc(CNC(=O)CO)s3)nc(C(F)(F)F)nc21 [Example 136, N-((5-(2-((1-ethyl-6-(trifluoromethyl)-1H-pyrazolo[3,4-d]pyrimidin-4-yl)thio)acetyl)thiophen-2-yl)methyl)-2-hydroxyacetamide]
25 | 100 to 500 nM | COc1ccc2nc(C)nc(SCC(=O)c3ccc([C@H](C)NC(=O)CO)s3)c2c1 [Example 128, (S)-2-hydroxy-N-(1-(5-(2-((6-methoxy-2-methylquinazolin-4-yl)thio)acetyl)thiophen-2-yl)ethyl)acetamide]
26 | ≤ 100 nM | O=C(CSc1nc(C(F)(F)F)nc2ncccc12)c1ccc(CNC(=O)C2CC2(F)F)s1 (stereo not shown) [Example 114, 2,2-difluoro-N-((5-(2-((2-(trifluoromethyl)pyrido[2,3-d]pyrimidin-4-yl)thio)acetyl)thiophen-2-yl)methyl)cyclopropane-1-carboxamide]
27 | ≤ 100 nM | Cc1nc(SCC(=O)c2ccc(CNC(=O)CO)s2)c2cc(N3CCC(F)(F)C3)ccc2n1 [Example 84, N-((5-(2-((6-(3,3-difluoropyrrolidin-1-yl)-2-methylquinazolin-4-yl)thio)acetyl)thiophen-2-yl)methyl)-2-hydroxyacetamide]
28 | ≤ 100 nM | COc1cc2c(SCC(=O)c3ccc(CNC(=O)CO)s3)nc(C)nc2cn1 [Example 121, 2-hydroxy-N-((5-(2-((6-methoxy-2-methylpyrido[3,4-d]pyrimidin-4-yl)thio)acetyl)thiophen-2-yl)methyl)acetamide]
